Values quoted from earlier work, collected in patent US20090117076A1, “Methods For Treating Tumor Cells” (priority 2007, published 2009).
Where a name gives a salt, the structure may show the parent alone. Read-outs that look alike come from different tables or passages of the source.

Assays:
[1] = tested on: GIST; conditions: for Median time to progression, historical value: single agent imatinib
[2] = primates

Molecule | Overall response rate of tumor necrosis/apoptosis ([1]; human, in vivo) [%] | Median time to progression, historical value ([1]; subgroup with KIT exon 11 mutation) [days] | Median time to progression, historical value ([1]; subgroup without KIT exon 11 mutation) [days] | Abortifacient effect [2]
Cc1ccc(NC(=O)c2ccc(CN3CCN(C)CC3)cc2)cc1Nc1nccc(-c2cccnc2)n1 [imatinib, imatinib mesylate] | 69 | 687 | 200 | 
interferon α-2b |  |  |  | abortifacient
